# Like-named read-outs stand apart in the source and are kept apart here. Marks after values point to notes of the source that are not given here.
# What was measured:
# M. smegmatis MC^2 155 = test: Antimycobacterial broth dilution MIC; type: cell-based, Mycobacterium smegmatis
# Protocol: (§1) To determine the antibacterial activities of these eight compounds (1–8), a preliminary screening of their antibacterial activities against a panel of Gram-positive and Gram-negative bacteria[6]–[8], M. smegmatis MC^2 155 and M. tuberculosis H37Rv, was conducted using a broth dilution method, [59]. Compounds 1–8 were dissolved in dimethylsulfoxide (DMSO) to give 3200 μg mL^−1 stock solutions. The stock solutions were then serially diluted to concentrations of 0.0625–128 μg mL^−1 with MH broth or 7H9 broth (added with 0.2% glycerol, 0.05% Tween 80). DMSO in MH broth or 7H9 broth was used as a negative control, and broth-containing bacteria was used as positive control. All experiments were performed in triplicate with kanamycin and rifampicin as control agents.
# M. tuberculosis H37Rv = test: Anti-TB broth dilution MIC; type: cell-based, Mycobacterium tuberculosis
# [1] = tested on: A549, human lung cancer cell line; test: MTT cytotoxicity; type: cell-based
# Protocol: (§2) Compounds 1–8 were evaluated for cytotoxicity using HeLa, HepG2, A549, CNE2, and MCF7 cell lines using a previously reported MTT method. The L02 and Huvec-12 cell lines were used as normal cell line controls. All these cell lines were obtained from American Type Culture Collection (ATCC) and cultured according to ATCC recommendations. Cell lines were checked for mycoplasma and profiled via short tandem repeat profiling to confirm their identity by the supplier. All experiments were performed in triplicate with doxorubicin and cis-platinum as control agents.
# [2] = tested on: CNE2, human nasopharyngeal carcinoma cell line; test: MTT cytotoxicity; type: cell-based
# Protocol: as §2
# [3] = tested on: HeLa, human cervical carcinoma cell line; test: MTT cytotoxicity; type: cell-based
# Protocol: as §2
# [4] = tested on: HepG2, human hepatocellular carcinoma cell line; test: MTT cytotoxicity; type: cell-based
# Protocol: as §2
# [5] = tested on: MCF7, human breast adenocarcinoma cell line; test: MTT cytotoxicity; type: cell-based
# Protocol: as §2
# [6] = tested on: Huvec-12, normal human umbilical vein endothelial cell line; test: MTT cytotoxicity, normal cell line control; type: cell-based; conditions: Huvec-12 normal cell line
# Protocol: as §2
# [7] = tested on: L02, normal human hepatic cell line; test: MTT cytotoxicity, normal cell line control; type: cell-based
# Protocol: as §2
# [8] = tested on: Acinetobacter baumanii ATCC19606; test: Antibacterial broth dilution MIC; type: cell-based
# Protocol: as §1
# [9] = tested on: Enterococcus faecalis ATCC29212; test: Antibacterial broth dilution MIC; type: cell-based
# Protocol: as §1
# [10] = tested on: Escherichia coli ATCC 25922; test: Antibacterial broth dilution MIC; type: cell-based
# Protocol: as §1
# Micrococcus luteus SC-1 = test: Antibacterial broth dilution MIC; type: cell-based
# Protocol: as §1
# [11] = tested on: Staphylococcus aureus ATCC29213; test: Antibacterial broth dilution MIC; type: cell-based
# Protocol: as §1
# MRSA shha-01 = test: microbe, parasite or virus in culture; type: cell-based; conditions: Staphylococcus aureus
# [12] = tested on: human tumor cell lines and normal human cell lines; test: MTT cytotoxicity, summary over human tumor and normal cell lines; type: cell-based; conditions: HeLa, HepG2, and A549 cell lines, read-out: IC50 values, range over cell lines
# Protocol: as §2
# [13] = Mycolicibacterium smegmatis, MC^2155, read-out: MIC
# [14] = Mycobacterium tuberculosis, H37RV, broth dilution, triplicate, n = 3
# [15] = Acinetobacter baumannii, ATCC19606
SMILES,MIC (M. smegmatis MC^2 155; [13]) [µM],MIC (M. tuberculosis H37Rv; [14]) [µM],IC50 ([1]; Homo sapiens) [µM],"IC50 ([2]; Homo sapiens, CNE-2) [µM]",IC50 ([3]; Homo sapiens) [µM],IC50 ([4]; Homo sapiens) [µM],IC50 ([5]; Homo sapiens) [µM],"IC50 ([6]; Homo sapiens, Endothelial cell) [µM]",IC50 ([7]; Homo sapiens) [µM],"MIC [8, 15] [µM]",MIC [9] [µM],MIC ([10]; ATCC25922) [µM],MIC (Micrococcus luteus SC-1; SC1) [µM],MIC [11] [µM],MIC (MRSA shha-01) [µM],IC50 [12] [µM],other results
CC=CCC1NC(=O)C(CC(C)C)N2C(=O)C(CC(C)C2O)N(C)C(=O)C(C)NC(=O)C(Cc2ccc(O)c([N+](=O)[O-])c2)NC(=O)C(CC(C)C)N(C)C(=O)C(Cc2cn(C(C)(C)C3CO3)c3ccccc23)NC1=O (stereo not shown) [3/4],0.12,9.6,3.5,6.8,3.3,3.2,4.5,33.8,7.4,123,> 123,> 123,> 123,> 123,> 123,3.2 to 6.2,–
C=CC(C)(C)n1cc(C[C@@H]2NC(=O)[C@H](C/C=C/C)NC(=O)[C@H](CC(C)C)N3C(=O)[C@H](C[C@H](C)C3O)N(C)C(=O)[C@H](C)NC(=O)[C@H](Cc3ccc(O)c([N+](=O)[O-])c3)NC(=O)[C@H](CC(C)C)N(C)C2=O)c2ccccc21 (stereo partly shown) [6/7],30.7,0.0098,6.2,14.9,3.9,4.9,3.9,18.6,14.9,125,> 125,> 125,> 125,> 125,> 125,3.2 to 6.2,"fold superior to positive control rifampin (MIC) (M. tuberculosis H37Rv): 30 fold; MIC (M. tuberculosis H37Rv; Mycobacterium tuberculosis, H37RV): ~0.0098 µM; MIC (M. tuberculosis H37Rv; read-out: MIC): 0.0098 µM"
"N.N.[Cl][Pt][Cl] [Cis, Cisplatin, reference compound]",–,–,–,–,–,–,–,–,–,–,–,–,–,–,–,–,IC50 [1]: 9.3 µM; IC50 [2]: 12.9 µM; IC50 [3]: 5.2 µM; IC50 [4]: 2.5 µM; IC50 [5]: 14.1 µM; IC50 [6]: 34.5 µM; IC50 [7]: 22.7 µM
"COc1cccc2c1C(=O)c1c(O)c3c(c(O)c1C2=O)C[C@@](O)(C(=O)CO)C[C@@H]3O[C@H]1C[C@H](N)[C@H](O)[C@H](C)O1 [Dox, Doxorubicin, reference compound]",–,–,3.4,3.6,0.98,1.2,3.4,34.3,13,–,–,–,–,–,–,–,–
"NC[C@H]1O[C@H](O[C@H]2[C@H](O)[C@@H](O[C@H]3O[C@H](CO)[C@@H](O)[C@H](N)[C@H]3O)[C@H](N)C[C@@H]2N)[C@H](O)[C@@H](O)[C@@H]1O [Kanamycin, reference compound]",–,–,–,–,–,–,–,–,–,–,–,–,–,0.85,–,–,MIC (M. smegmatis MC^2 155): 1.7^a μM; MIC ([8]; Acinetobacter baumanii ATCC19606): 3.4 µM; MIC [10]: 1.7 µM; MIC (Micrococcus luteus SC-1): 0.85 µM
"CO[C@H]1/C=C/O[C@@]2(C)Oc3c(C)c(O)c4c(O)c(c(/C=N/N5CCN(C)CC5)c(O)c4c3C2=O)NC(=O)/C(C)=C\C=C\[C@H](C)[C@H](O)[C@@H](C)[C@@H](O)[C@@H](C)[C@H](OC(C)=O)[C@@H]1C [Rif, Rifampin, reference compound]",–,–,–,–,–,–,–,–,–,–,–,–,–,–,–,–,"MIC (M. tuberculosis H37Rv; Mycobacterium tuberculosis, H37RV, broth dilution, triplicate, n = 3, read-out: MIC): 0.3 µM"

# — article PMC5577134 (Nature Communications, 2017)
